# Experiments:
# [1] = system: nicotine-induced antinociception; experiment: Blockade of nicotine-induced antinociception, tail-flick test; assay type: in vivo, mice; settings: for AD50 Tail-Flick: blocking antinociception of nicotine 2.5 mg/kg, systemic administration; for AD50, nicotine-induced antinociception in tail-flick test: s.c. administration
# Method: Anitinociception. The tail-flick method of D'Amour and Smith (1941) as modified by Dewey et al. (1970) was used. A control response (2-4 s) was determined for each animal before treatment, and a test latency was determined after drug administration. To minimize tissue damage, a maximum latency of 10 s was imposed. Antinociceptive response was calculated as percent maximum possible effect (% MPE), where % MPE=[((test-control)/(10-control))×100], Groups of 8 to 12 animals were used for each dose and for each treatment. Mice were tested 5 min after nicotine administration for the dose-response evaluation. Antagonism studies were carried out by pretreating the mice s.c. with either saline or various drugs at different times before nicotine. The animals were tested 5 min after administration of nicotine.
# (§1) Data were analyzed statistically by an analysis of variance followed by the Fisher's P least-significant difference multiple comparison test. The null hypothesis was rejected at the […].
# [2] = system: nicotine-induced hypothermia; experiment: Blockade of nicotine-induced hypothermia (body temperature); assay type: in vivo, mice; settings: for AD50 Hypothermia: blocking nicotine-induced hypothermia, systemic administration
# Method: Body Temperature. Rectal temperature was measured by a thermistor probe (inserted 24 mm) and digital thermometer (Yellow Springs Instrument Co., Yellow Springs, Ohio). Readings were taken just before and at 30 min after the s.c. injection of nicotine. For antagonism studies, mice were pretreated with either saline or various drugs 10 min before nicotine. The difference in rectal temperature before and after treatment was calculated for each mouse. The ambient temperature of the laboratory varied from 21 to 24° C. from day to day.
# as §1
# [3] = molecular target: T1, Serotonin transporter (Rattus norvegicus, UniProt P31652); settings: brain; read-out: Serotonin [3H]Paroxetine IC50; cited from earlier work
# T1 construct: from tissue; host or cells: brain
# [4] = molecular target: T2, Dopamine transporter (Rattus norvegicus, UniProt P23977); settings: brain; read-out: Dopamine [3H]WIN 35,428 IC50; cited from earlier work
# T2 construct: from tissue; host or cells: brain
# [5] = molecular target: T3, Norepinephrine transporter (Rattus norvegicus, UniProt Q63380); settings: brain; read-out: Norepinephrine [3H]Nisoxetime IC50; cited from earlier work
# T3 construct: from tissue; host or cells: brain
# [6] = system: nicotine-induced seizures; experiment: Nicotine-induced seizure activity; assay type: in vivo, mice; settings: saline pretreatment, nicotine 9 mg/kg challenge
# Method: Seizure Activity. Following s.c. injection of nicotine at a dose of 9 mg/kg, each animal was placed in a 30 cm×30 cm Plexiglass cage and observed for 5 min. […] This amount of time was chosen because seizures occur very quickly after nicotine administration. Results are expressed as percentage seizure.
# [7] = system: discriminative stimulus effect of nicotine; experiment: Nicotine drug discrimination; assay type: in vivo; settings: saline pretreatment, nicotine 0.4 mg/kg, rats
# Method: Rats were individually housed in a temperature-controlled environment and were maintained on a diet (Agway Rodent Chow) that restricted their body weight to approximately 85% of their free feeding weight. Water was available ad libitum in the home cages. A two-lever operant drug nation paradigm (VI 15) was carried out in eight operant chambers (4 Lafayette model 80001 and 4 BRS/LVIE model s 002). Reinforcement was a Bioserv 45-mg precision dustless pellet. Data were collected automatically by two Commodore 64 microcomputers.
# Rats were placed in an operant chamber 5 min after injections. […] Animals were required to meet a criterion of three successive days of 80% or greater correct-lever responding before testing was initiated. Injections were given 5 min before placing the animal in the operant chamber. The schedule of injections, was determined using a Latin Square design. Dose-response curves were determined for nicotine 5 min after s.c. injections.
# [8] = system: cocaine-induced hyperactivity; experiment: Locomotor activity, cocaine-induced hyperactivity; assay type: in vivo, mice; settings: doses higher than 1 mg/kg
# Method: Locomotor Activity. […] Interruptions of the photocell beams (two banks of eight cells each) were then recorded for the next 30 min. Data were expressed as number of photocell interruptions.
# T2 sequence (P23977 whole entry): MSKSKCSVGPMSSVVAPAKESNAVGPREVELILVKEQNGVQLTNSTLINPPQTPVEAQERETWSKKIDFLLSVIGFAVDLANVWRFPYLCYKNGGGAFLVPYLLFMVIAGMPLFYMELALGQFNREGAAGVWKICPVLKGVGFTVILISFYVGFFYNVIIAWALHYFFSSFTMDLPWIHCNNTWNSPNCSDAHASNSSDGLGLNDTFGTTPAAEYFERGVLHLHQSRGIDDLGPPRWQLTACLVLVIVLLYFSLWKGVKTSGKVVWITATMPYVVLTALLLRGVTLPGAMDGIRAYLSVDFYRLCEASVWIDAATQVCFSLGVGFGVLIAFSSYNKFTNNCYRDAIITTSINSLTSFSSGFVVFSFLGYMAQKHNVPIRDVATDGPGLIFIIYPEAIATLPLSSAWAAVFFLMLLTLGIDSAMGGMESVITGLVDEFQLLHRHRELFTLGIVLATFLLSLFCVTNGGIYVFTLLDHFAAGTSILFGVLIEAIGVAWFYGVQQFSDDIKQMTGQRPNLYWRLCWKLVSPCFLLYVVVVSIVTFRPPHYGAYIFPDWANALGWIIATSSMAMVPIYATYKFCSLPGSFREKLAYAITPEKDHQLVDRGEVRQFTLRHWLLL
# T3 sequence (Q63380 1-617): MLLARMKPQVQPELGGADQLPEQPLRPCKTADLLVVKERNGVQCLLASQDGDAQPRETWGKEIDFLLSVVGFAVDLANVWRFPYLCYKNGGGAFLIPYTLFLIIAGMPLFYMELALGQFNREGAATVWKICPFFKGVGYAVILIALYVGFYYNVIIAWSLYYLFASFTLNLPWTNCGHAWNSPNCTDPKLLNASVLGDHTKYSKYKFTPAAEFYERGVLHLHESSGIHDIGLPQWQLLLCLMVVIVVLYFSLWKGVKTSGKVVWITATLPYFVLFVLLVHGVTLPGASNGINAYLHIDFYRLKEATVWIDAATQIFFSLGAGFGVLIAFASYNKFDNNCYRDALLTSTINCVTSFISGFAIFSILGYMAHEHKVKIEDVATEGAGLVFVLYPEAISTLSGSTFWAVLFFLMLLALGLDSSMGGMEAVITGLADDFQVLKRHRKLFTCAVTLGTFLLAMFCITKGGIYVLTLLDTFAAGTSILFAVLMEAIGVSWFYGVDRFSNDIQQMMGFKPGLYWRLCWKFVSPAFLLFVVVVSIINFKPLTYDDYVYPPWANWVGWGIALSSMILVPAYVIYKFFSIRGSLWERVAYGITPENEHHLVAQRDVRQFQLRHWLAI
# T1 sequence (P31652 whole entry): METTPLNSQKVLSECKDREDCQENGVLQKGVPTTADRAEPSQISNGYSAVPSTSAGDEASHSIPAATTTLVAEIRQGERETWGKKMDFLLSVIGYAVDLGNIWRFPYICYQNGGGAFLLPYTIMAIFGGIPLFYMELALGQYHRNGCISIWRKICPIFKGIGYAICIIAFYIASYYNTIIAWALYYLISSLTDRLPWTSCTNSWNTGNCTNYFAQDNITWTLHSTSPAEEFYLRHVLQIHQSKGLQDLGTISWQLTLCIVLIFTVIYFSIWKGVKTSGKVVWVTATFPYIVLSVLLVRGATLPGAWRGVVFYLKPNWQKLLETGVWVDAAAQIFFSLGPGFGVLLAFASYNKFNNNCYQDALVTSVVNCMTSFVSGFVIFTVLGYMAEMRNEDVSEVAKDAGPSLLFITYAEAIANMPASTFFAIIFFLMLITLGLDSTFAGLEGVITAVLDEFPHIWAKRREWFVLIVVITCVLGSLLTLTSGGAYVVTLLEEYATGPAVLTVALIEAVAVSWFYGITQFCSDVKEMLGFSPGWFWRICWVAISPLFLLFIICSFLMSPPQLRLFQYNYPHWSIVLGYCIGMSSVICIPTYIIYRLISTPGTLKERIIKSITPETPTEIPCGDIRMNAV
smiles,measurement,setting,value
COC(=O)[C@H]1[C@@H](c2ccc(Cl)cc2)C[C@H]2CC[C@H]1N2C [RTI-31],AD50 Tail-Flick,[1]; mice,7.2 μmol/hg
same,AD50 Hypothermia,[2]; mice,1.1 μmol/hg
same,"AD50, blockade of nicotine-induced hypothermia",[2]; mice,1.1 µmol/kg
same,Blockade of nicotine-induced hypothermia (in words),[2]; mice,significantly blocked
same,IC50,[3],44.5 nM
"CNCCC(Oc1ccccc1OC)c1ccccc1 (stereo not shown) [Nisoxetine, reference compound]","AD50, nicotine-induced antinociception in tail-flick test",[1]; mice,7.4 μmol/hg
COC(=O)[C@H]1[C@@H](c2ccc(Cl)c(Cl)c2)C[C@@H]2CC[C@H]1N2C [RTI-111],AD50 Tail-Flick,[1]; mice,1.3 μmol/hg
same,Fold more potent than cocaine in blocking nicotine's antinociceptive effect,"[1]; tail-flick, mice",~2.5 fold
same,IC50,[4],0.79 nM
same,IC50,[3],3.1 nM
same,IC50,[5],17.9 nM
CN1[C@H]2CC[C@@H]1[C@@H](C(=O)O)[C@@H](c1ccc(Cl)cc1)C2 [RTI-70],"Tail-flick, % blockade @ dose",[1]; @ 90 μmol/hg,0% @ 90
same,"Relative potency in blocking nicotine's antinociceptive effect (in words, comparator in the value)","[1]; tail-flick, mice",much less potent than cocaine
same,"Hypothermia, % blockade @ dose",[2]; @ 90 μmol/hg,40% @ 90
same,IC50,[4],2070 nM
same,IC50,[3],59500 nM
same,IC50,[5],> 200000 nM
"CN1CCCC1c1cccnc1 (single isomer, unassigned; (-)) [Nicotine, (−)-Nicotine, reference compound]",ED50,"[1]; Mus musculus, read-out: ED50 value of nicotine, antinociception",1.5 mg/kg
same,% Seizures (Mean),[6],100%
same,Drug discrimination % Test (Mean ± SE),[7],87 ± 8%
COC(=O)[C@H]1[C@@H](c2ccc(C)cc2)C[C@@H]2CC[C@H]1N2C [RTI-32],AD50 Tail-Flick,[1]; mice,2.0 μmol/hg
same,AD50 Hypothermia,[2]; mice,31.7 μmol/hg
same,Blockade of nicotine-induced hypothermia (in words),[2]; mice,significantly blocked
same,IC50,[4],1.7 nM
same,IC50,[5],60 nM
"CN1Cc2c(N)cccc2C(c2ccccc2)C1 (stereo not shown) [Nomifensine, reference compound]","AD50, nicotine-induced antinociception in tail-flick test",[1]; mice,1.7 μmol/hg
same,Blockade of nicotine-induced antinociception (in words),"[1]; tail-flick, mice",dose-dependently blocked
same,"Relative potency in blocking nicotine's antinociceptive effect (in words, comparator in the value)","[1]; tail-flick, mice",five times more potent than GBR 12909
"Fc1ccc(C(OCCN2CCN(CCCc3ccccc3)CC2)c2ccc(F)cc2)cc1 [GBR 12909, reference compound]","AD50, nicotine-induced antinociception in tail-flick test",[1]; mice,8.4 μmol/hg
"CNCCC(Oc1ccc(C(F)(F)F)cc1)c1ccccc1 (stereo not shown) [Fluoxetine, reference compound]","Tail-flick, % blockade @ dose","[1]; @ 86.7 μmol/hg, s.c.",15% @ 86.7
same,Blockade of nicotine-induced antinociception (in words),"[1]; tail-flick, mice",failed to significantly block
CNC1(C)C2CCC(C2)C1(C)C (stereo not shown) [mecamylamine],Effect of higher doses on mouse spontaneous activity,[8],significantly decreased mouse spontaneous activity
"CC(NC(C)(C)C)C(=O)c1cccc(Cl)c1 (stereo not shown) [Bupropion, reference compound]","AD50, nicotine-induced antinociception in tail-flick test",[1]; mice,8 μmol/hg
same,Blockade of nicotine-induced antinociception (in words),"[1]; tail-flick, mice",dose-dependently blocked
same,"Relative potency in blocking nicotine's antinociceptive effect (in words, comparator in the value)","[1]; tail-flick, mice",as potent as GBR 12909
"CO[C@H]1CC=C2CCN3CCC4=C(CC(=O)OC4)[C@]23C1 [DHβE, Dihydro-β-erythroidine]",Effect of higher doses on mouse spontaneous activity,[8],significantly decreased mouse spontaneous activity
"Cn1c(=O)c2c(ncn2C)n(C)c1=O [Caffeine, reference compound]","AD50, nicotine-induced antinociception in tail-flick test",[1]; mice,32.4 μmol/hg
same,Blockade of nicotine-induced antinociception (in words),"[1]; tail-flick, mice",blocked nicotine-induced antinociception
COC(=O)[C@H]1C(c2ccc(I)cc2)C[C@@H]2CC[C@H]1N2C (stereo partly shown) [RTI-55],AD50 Tail-Flick,[1]; mice,0.9 μmol/hg
same,AD50 Hypothermia,[2]; mice,1.2 μmol/hg
same,Blockade of nicotine-induced hypothermia (in words),[2]; mice,significantly blocked
same,IC50,[4],1.26 nM
same,IC50,[3],4.2 nM
same,IC50,[5],63 nM
"COC(=O)[C@H]1[C@@H](OC(=O)c2ccccc2)C[C@@H]2CC[C@H]1[N+]2(C)C.[I-] [cocaine methiodide, reference compound]",Blockade of nicotine-induced antinociception (in words),"[1]; tail-flick, mice",failed to significantly block
same,Blockade of nicotine-induced antinociception (in words),"[1]; tail-flick, mice, listed as cocaine-methiodide",Lack of blockade
